Usually Solubility stands for the concentration that dissolves in the medium under given conditions.

≈ marks a conversion by molar mass, not a printed value.

This note sets out measurements from patent US10604510B2, “Solid forms comprising (1E, 4E)-2-amino-N,N-dipropyl-8-(4-(pyrrolidine-1-carbonyl)phenyl)-3H-benzo[B]azepine-4-carboxami compositions thereof, and uses thereof” (Celgene Corporation, priority 2014, dated 2020).

A short description of data set [1]: Solubility of Forms A and G after 40 min stirring. The data set is classed as physicochemical. The method, then: For purity estimation and determination of the solubility in solution a generic in-house HPLC method was used. HPLC was performed using a Phenomenex Luna 3 μm C18 (50×4.6 mm) column and detected with a DAD detector, recording at 214 nm.
Data set [2] in a line: Form stability analysis (solubility and concurrent slurry experiments). Format: physicochemical. The protocol: As form conversions tend to happen faster at elevated temperature at 60° C., slurries were performed for the starting material used for the screening (A/G mixture) during 18 h at 60° C.
Forms J and C were identified as potential non-solvates and their stability was investigated. Form J could be eliminated as stable form because, in part, the DSC (FIG. 36) indicated an exothermic form conversion around 140° C. This leads to a form melting at 210° C., which likely represents Form G and therefore represents a monotropic relation.
Form C was obtained by drying a Form C/J mixture. The XRPD pattern appeared to contain traces of reflexes of Form J. Slurries of Form C seeded with Form A (15% w/w) in ethanol and acetone were performed during 18 h. The resulting solid was pure Form A. This also confirmed the exothermic event observed in DSC (FIG. 16) which indicated a monotropic relation to the form formed in DSC around 130° C. (melting point 210° C., which, as described herein, is likely Form G).

In the case of `CCCN(CCC)C(=O)C1=Cc2ccc(-c3ccc(C(=O)N4CCCC4)cc3)cc2N=C(N)C1` [Form G, (1E, 4E)-2-amino-N,N-dipropyl-8-(4-(pyrrolidine-1-carbonyl)phenyl)-3H-benzo[b]azepine-4-carboxamide], the Solubility in data set [1] (EtOH, 0 ° C.) was 7600 µg/mL (≈ 16.6 mM); in data set [1] (EtOH, 22 ° C.), 15800 µg/mL (≈ 34.5 mM); in data set [1] (EtOH, 60 ° C.), 36900 µg/mL (≈ 80.5 mM); in data set [1] (MEK, 0 ° C.) it was 2600 µg/mL (≈ 5.67 mM); in data set [1] (MEK, 22 ° C.), 3100 µg/mL (≈ 6.76 mM); in data set [1] (MEK, 60 ° C.), 4600 µg/mL (≈ 10 mM). For the same molecule, in data set [2], the “stability relative to other crystalline forms” value is “less stable at 25 °C in comparison to Form A”.
